# Test results reported in US10029984B2, “Mono- or di-substituted indole derivatives as dengue viral replication inhibitors” (Janssen Pharmaceuticals, Inc., priority 2015, dated 2018).
# How the values were obtained:
# DENV-2 16681 strain = assay: DENV-2 antiviral assay (eGFP-labeled virus in Vero cells); type: cell-based, Dengue virus; details: DENV-2 16681 eGFP, MOI 0.5, 3 days
# Description: The antiviral activity of all the compounds of the invention was tested against DENV-2 16681 strain which was labeled with enhanced green fluorescent protein (eGPF; Table 1). The culture medium consists of minimal essential medium supplemented with 2% of heat-inactivated fetal calf serum, 0.04% gentamycin (50 mg/mL) and 2 mM of L-glutamine. Vero cells, obtained from ECACC, were suspended in culture medium and 25 μL was added to 384-well plates (2500 cells/well), which already contain the antiviral compounds. Typically, these plates contain a 4-fold serial dilution of 9 dilution steps of the test compound at 200 times the final concentration in 100% DMSO (200 nL). In addition, each compound concentration is tested in quadruplicate (final concentration range: 25 μM-0.00038 μM). Finally, each plate contains wells which are assigned as virus controls (containing cells and virus in the absence of compound), cell controls (containing cells in the absence of virus and compound) and medium controls (containing medium in the absence of cells, virus and compounds). To the wells assigned as medium control, 25 μL of culture medium was added instead of Vero cells. Once the cells were added to the plates, the plates were incubated for 30 minutes at room temperature to allow the cells to distribute evenly within the wells. Next, the plates were incubated in a fully humidified incubator (37° C., 5% CO2) until the next day. Then, DENV-2 strain 16681, labeled with eGFP, was added at a multiplicity of infection (MOI) of 0.5. Therefore, 15 μL of virus suspension was added to all the wells containing test compound and to the wells assigned as virus control. In parallel, 15 μL of culture medium was added to the medium and cell controls. Next, the plates were incubated for 3 days in a fully humidified incubator (37° C., 5% CO2). At the day of the read out, the eGFP fluorescence was measured using an automated fluorescence microscope at 488 nm (blue laser). Using an in-house LIMS system, inhibition dose response curves for each compound were calculated and the half maximal effective concentration (EC50) was determined. Therefore, the percent inhibition (I) for every test concentration is calculated using the following formula: I=100*(ST−SCC)/(SVC−SCC); ST, SCC and SVC are the amount of eGFP signal in the test compound, cell control and virus control wells, respectively. The EC50 represents the concentration of a compound at which the virus replication is inhibited with 50%, as measured by a 50% reduction of the eGFP fluorescent intensity compared to the virus control. The EC50 is calculated using linear interpolation.
# in vitro = type: cell-based; details: African green monkey, CC50
# Description: (§1) In parallel, the toxicity of the compounds was assessed on the same plates. Once the read-out for the eGFP signal was done, 10 μL of resazurin, a cell viability stain, was added to all wells of the 384-well plates. The resazurin assay is based on the reduction of the blue resazurin by NADH, produced by the cells, into the highly fluorescent product, resorufin. The formation of pink fluorescent resorufin is directly related to the number of viable cells in the well. The plates were incubated for an additional 5 hours in a fully humidified incubator (37° C., 5% CO2). Next, the plates were measured on an Infinite reader (Tecan) using an excitation wavelength of 530 nm. The half maximal cytotoxic concentration (CC50) was also determined, defined as the concentration required to reduce the resazurin conversion by 50% compared to that of the cell control wells. Finally, the selectivity index (SI) was determined for the compounds, which was calculated as followed: SI=CC50/EC50.
# Vero cells = assay: in vitro; type: cell-based; details: African green monkey
# Description: as §1
structure (smiles),measurement,setting,value
"COc1cc(NC(C(=O)c2c[nH]c3cc(F)ccc23)c2ccc(F)cc2OC)cc(S(C)(=O)=O)c1 (racemic) [Compound 1, 1-(6-fluoro-1H-indol-3-yl)-2-(4-fluoro-2-methoxyphenyl)-2-((3-methoxy-5-(methylsulfonyl)phenyl)amino)ethanone]",EC50,"DENV-2 16681 strain; Dengue virus, DENV2, Vero, 72 h",0.002 µM
same,CC50,in vitro,9.9 µM
"COc1cc(NC(C(=O)c2c[nH]c3cc(F)ccc23)c2ccc(F)cc2OC)cc(S(C)(=O)=O)c1 (single isomer, unassigned) [Enantiomer 1B, 1-(6-fluoro-1H-indol-3-yl)-2-(4-fluoro-2-methoxyphenyl)-2-((3-methoxy-5-(methylsulfonyl)phenyl)amino)ethanone]",EC50,DENV-2 16681 strain; listed as 1B,0.05 µM
same,CC50,Vero cells,12 µM
"COc1cc(NC(C(=O)c2c[nH]c3c(C)c(F)ccc23)c2ccc(F)cc2OC)cc(S(C)(=O)=O)c1 (single isomer, unassigned) [Enantiomer 2B, 2-(4-fluoro-2-methoxyphenyl)-1-(6-fluoro-7-methyl-1H-indol-3-yl)-2-((3-methoxy-5-(methylsulfonyl)phenyl)amino)ethanone]",EC50,DENV-2 16681 strain; listed as 2B,0.055 µM
same,CC50,Vero cells,8 µM
"COc1cc(NC(C(=O)c2c[nH]c3c(C)c(Cl)ccc23)c2ccc(F)cc2OC)cc(S(C)(=O)=O)c1 (single isomer, unassigned) [Enantiomer 3B, 1-(6-chloro-7-methyl-1H-indol-3-yl)-2-(4-fluoro-2-methoxyphenyl)-2-((3-methoxy-5-(methylsulfonyl)phenyl)amino)ethanone]",EC50,DENV-2 16681 strain; listed as 3B,0.032 µM
same,CC50,Vero cells,11 µM
"COc1cc(NC(C(=O)c2c[nH]c3cc(Cl)ccc23)c2ccc(F)cc2OC)cc(S(C)(=O)=O)c1 (single isomer, unassigned) [Enantiomer 4B, 1-(6-chloro-1H-indol-3-yl)-2-(4-fluoro-2-methoxyphenyl)-2-((3-methoxy-5-(methylsulfonyl)phenyl)amino)ethanone]",EC50,DENV-2 16681 strain; listed as 4B,0.018 µM
same,CC50,Vero cells,16 µM
"COc1cc(NC(C(=O)c2c[nH]c3c(F)cc(C)cc23)c2ccc(F)cc2OC)cc(S(C)(=O)=O)c1 (single isomer, unassigned) [Enantiomer 6B, 2-(4-fluoro-2-methoxyphenyl)-1-(7-fluoro-5-methyl-1H-indol-3-yl)-2-((3-methoxy-5-(methylsulfonyl)phenyl)amino)ethanone]",EC50,DENV-2 16681 strain; listed as 6B,0.2 µM
same,CC50,Vero cells,12 µM
"COc1cc(NC(C(=O)c2c[nH]c3cc(F)c(F)cc23)c2ccc(F)cc2OC)cc(S(C)(=O)=O)c1 (single isomer, unassigned) [Enantiomer 7B, 1-(5,6-difluoro-1H-indol-3-yl)-2-(4-fluoro-2-methoxyphenyl)-2-((3-methoxy-5-(methylsulfonyl)phenyl)amino)ethanone]",EC50,DENV-2 16681 strain; listed as 7B,0.043 µM
same,CC50,Vero cells,9.6 µM
"COc1cc(NC(C(=O)c2c[nH]c3c(C)cc(F)cc23)c2ccc(F)cc2OC)cc(S(C)(=O)=O)c1 (single isomer, unassigned) [Enantiomer 8B, 2-(4-fluoro-2-methoxyphenyl)-1-(5-fluoro-7-methyl-1H-indol-3-yl)-2-((3-methoxy-5-(methylsulfonyl)phenyl)amino)ethanone]",EC50,DENV-2 16681 strain; listed as 8B,0.24 µM
same,CC50,Vero cells,11 µM
"COc1cc(NC(C(=O)c2c[nH]c3cc(C)c(F)cc23)c2ccc(F)cc2OC)cc(S(C)(=O)=O)c1 (single isomer, unassigned) [Enantiomer 9B, 2-(4-fluoro-2-methoxyphenyl)-1-(5-fluoro-6-methyl-1H-indol-3-yl)-2-((3-methoxy-5-(methylsulfonyl)phenyl)amino)ethanone]",EC50,DENV-2 16681 strain; listed as 9B,0.098 µM
same,CC50,Vero cells,21 µM
"COc1cc(NC(C(=O)c2c[nH]c3cc(OC)c(C)cc23)c2ccc(F)cc2OC)cc(S(C)(=O)=O)c1 (single isomer, unassigned) [Enantiomer 10A, 2-(4-fluoro-2-methoxyphenyl)-2-((3-methoxy-5-(methylsulfonyl)phenyl)amino)-1-(6-methoxy-5-methyl-1H-indol-3-yl)ethanone]",EC50,DENV-2 16681 strain; listed as 10A,0.054 µM
same,CC50,Vero cells,18 µM
"COc1cc(NC(C(=O)c2c[nH]c3cc(OC)c(F)cc23)c2ccc(F)cc2OC)cc(S(C)(=O)=O)c1 (single isomer, unassigned) [Enantiomer 11B, 2-(4-fluoro-2-methoxyphenyl)-1-(5-fluoro-6-methoxy-1H-indol-3-yl)-2-((3-methoxy-5-(methylsulfonyl)phenyl)amino)ethanone]",EC50,DENV-2 16681 strain; listed as 11B,0.055 µM
same,CC50,Vero cells,> 25 µM
"COc1cc(NC(C(=O)c2c[nH]c3c(Cl)c(OC)ccc23)c2ccc(F)cc2OC)cc(S(C)(=O)=O)c1 (single isomer, unassigned) [Enantiomer 12B, 1-(7-chloro-6-methoxy-1H-indol-3-yl)-2-(4-fluoro-2-methoxyphenyl)-2-((3-methoxy-5-(methylsulfonyl)phenyl)amino)ethanone]",EC50,DENV-2 16681 strain; listed as 12B,0.021 µM
same,CC50,Vero cells,> 25 µM
"COc1cc(NC(C(=O)c2c[nH]c3cc(F)c(C)cc23)c2ccc(F)cc2OC)cc(S(C)(=O)=O)c1 (single isomer, unassigned) [Enantiomer 14B, 2-(4-fluoro-2-methoxyphenyl)-1-(6-fluoro-5-methyl-1H-indol-3-yl)-2-((3-methoxy-5-(methylsulfonyl)phenyl)amino)ethanone]",EC50,DENV-2 16681 strain; listed as 14B,0.041 µM
same,CC50,Vero cells,11 µM
"COc1cc(NC(C(=O)c2c[nH]c3ccc(C)cc23)c2ccc(F)cc2OC)cc(S(C)(=O)=O)c1 (single isomer, unassigned) [Enantiomer 15B, 2-(4-fluoro-2-methoxyphenyl)-2-((3-methoxy-5-(methylsulfonyl)phenyl)amino)-1-(5-methyl-1H-indol-3-yl)ethanone]",EC50,DENV-2 16681 strain; listed as 15B,0.073 µM
same,CC50,Vero cells,17 µM
"COc1cc(NC(C(=O)c2c[nH]c3cc(OC)c(Cl)cc23)c2ccc(F)cc2OC)cc(S(C)(=O)=O)c1 (single isomer, unassigned) [Enantiomer 16B, 1-(5-chloro-6-methoxy-1H-indol-3-yl)-2-(4-fluoro-2-methoxyphenyl)-2-((3-methoxy-5-(methylsulfonyl)phenyl)amino)ethanone]",EC50,DENV-2 16681 strain; listed as 16B,0.013 µM
same,CC50,Vero cells,22 µM
"COc1cc(NC(C(=O)c2c[nH]c3ccc(C(F)(F)F)cc23)c2ccc(F)cc2OC)cc(S(C)(=O)=O)c1 (single isomer, unassigned) [Enantiomer 17A, 2-(4-fluoro-2-methoxyphenyl)-2-((3-methoxy-5-(methylsulfonyl)phenyl)amino)-1-(5-(trifluoromethyl)-1H-indol-3-yl)ethanone]",EC50,DENV-2 16681 strain; listed as 17A,0.038 µM
same,CC50,Vero cells,14 µM
"COc1cc(NC(C(=O)c2c[nH]c3ccc(OC(F)(F)F)cc23)c2ccc(F)cc2OC)cc(S(C)(=O)=O)c1 (single isomer, unassigned) [Enantiomer 18B, 2-(4-fluoro-2-methoxyphenyl)-2-((3-methoxy-5-(methylsulfonyl)phenyl)amino)-1-(5-(trifluoromethoxy)-1H-indol-3-yl)ethanone]",EC50,DENV-2 16681 strain; listed as 18B,0.0092 µM
same,CC50,Vero cells,10 µM
